Substitutions are numbered along the chain they refer to.
Columns and labels:
AlaRS^R326W = target: T1, AlaRS^R326W (Homo sapiens, UniProt P49588, R326W); assay: Biolayer interferometry (BLI); assay type: binding; conditions: immobilized AlaRS^R326W, mean ± SD, triplicate
T1 construct: made in house; host or cells: E. coli BL21 (DE3), pET-21a
T1 sequence (P49588 1-968 R326W): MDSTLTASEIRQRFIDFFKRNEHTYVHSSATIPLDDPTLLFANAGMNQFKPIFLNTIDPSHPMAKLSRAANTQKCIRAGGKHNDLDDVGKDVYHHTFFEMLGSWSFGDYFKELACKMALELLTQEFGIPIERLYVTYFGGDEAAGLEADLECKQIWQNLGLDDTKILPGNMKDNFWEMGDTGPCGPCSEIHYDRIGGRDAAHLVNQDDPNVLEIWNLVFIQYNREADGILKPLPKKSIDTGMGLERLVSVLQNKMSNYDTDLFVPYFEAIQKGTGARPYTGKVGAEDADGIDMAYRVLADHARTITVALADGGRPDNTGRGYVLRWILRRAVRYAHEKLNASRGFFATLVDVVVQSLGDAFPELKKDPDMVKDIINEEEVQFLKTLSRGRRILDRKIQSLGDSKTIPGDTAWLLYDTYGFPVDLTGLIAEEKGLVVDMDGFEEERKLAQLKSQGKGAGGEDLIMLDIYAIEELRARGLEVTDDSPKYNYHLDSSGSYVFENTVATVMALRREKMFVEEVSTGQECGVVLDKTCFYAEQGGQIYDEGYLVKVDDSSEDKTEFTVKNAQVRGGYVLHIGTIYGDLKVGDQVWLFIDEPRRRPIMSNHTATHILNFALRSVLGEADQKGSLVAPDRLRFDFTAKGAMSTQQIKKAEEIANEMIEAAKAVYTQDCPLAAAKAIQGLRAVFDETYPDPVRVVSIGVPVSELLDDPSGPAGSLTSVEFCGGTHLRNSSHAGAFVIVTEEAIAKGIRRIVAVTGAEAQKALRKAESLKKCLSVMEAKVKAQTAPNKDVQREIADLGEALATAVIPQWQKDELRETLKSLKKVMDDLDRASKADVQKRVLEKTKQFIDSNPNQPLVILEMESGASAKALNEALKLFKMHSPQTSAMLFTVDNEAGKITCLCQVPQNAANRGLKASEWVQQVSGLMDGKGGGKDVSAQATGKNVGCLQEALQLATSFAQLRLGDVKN
Experimental: (§1) Furthermore, we examined the interaction of Tanshinone I with additional AlaRS CMT mutants capable of binding to Nrp1 and causing conformational changes by BLI and proteolysis assays on additional related mutants. […] To further quantify the binding of small molecules to mutant proteins, binding experiments with AlaRS^R329H proteins and small molecules were conducted using an Octet R8 system (ForteBio, Fremont, CA, USA). Purified His-tagged AlaRS^R329H proteins (500 μg/mL) were captured on Ni-NTA biosensors (ForteBio, Fremont, CA, USA), achieving a saturation response of 4–5 nm after 300 s. The biosensors were then transferred to Octet buffer (PBS with 0.01% Tween 20) for 180 s to remove loosely bound, nonspecific proteins and to establish a stable baseline. Following this, the sensors were immersed in diluted Tanshinone I (2.5–100 μM in assay buffer) for 120 s to record the association signal, and then transferred back into Octet buffer to monitor the dissociation signal for 120 s. Reference wells containing buffer instead of Tanshinone I were included to correct for baseline shifts. Additionally, a parallel set of Ni-NTA sensors in buffer served as negative reference controls to account for nonspecific binding of the compounds to the biosensor surface. The data were processed using a double reference subtraction protocol to eliminate nonspecific signals, background noise, and signal drifts caused by biosensor variability. All assays were performed in 96-well black plates with a total volume of 200 μL per well at 30 °C. Data analysis, including correction and curve fitting, was carried out using Octet® Analysis Studio 12.2.2.26. The experiment was repeated three times.

AlaRS^G102R = target: T2, AlaRS^G102R (Homo sapiens, UniProt P49588, G102R); assay: Biolayer interferometry (BLI); assay type: binding; conditions: immobilized AlaRS^G102R, mean ± SD, triplicate
T2 construct: made in house; host or cells: E. coli BL21 (DE3), pET-21a
T2 sequence (P49588 1-968 G102R): T1 sequence (P49588 1-968 R326W) with G102R, W326R
Experimental: as §1

- Kd (AlaRS^R326W): 39.6 ± 6.4 µM
- Kd (AlaRS^G102R): 31.2 ± 11.9 µM
Structure (SMILES): Cc1coc2c1C(=O)C(=O)c1c-2ccc2c(C)cccc12 [Tanshinone I]
